The numbers were not newly measured in patent US20070053983A1 (priority 2005, published 2007), which cites them from elsewhere.

The data set deals with β-adrenergic receptors. As to conditions: man; reduced heart rate, cardiac output and exercise systolic pressure; inhibition of isoproterenol-induced and reflex orthostatic tachycardia.

Turning to `COCCc1ccc(OCC(O)CNC(C)C)cc1` (stereo not shown) [Metoprolol], the β-blocking activity entry is reported as “confirmed the β-blocking activity”.
